Bounds are passed on as bounds.

The term IC50 denotes the concentration that gives 50% inhibition.

T1 sequence (P97477 whole entry): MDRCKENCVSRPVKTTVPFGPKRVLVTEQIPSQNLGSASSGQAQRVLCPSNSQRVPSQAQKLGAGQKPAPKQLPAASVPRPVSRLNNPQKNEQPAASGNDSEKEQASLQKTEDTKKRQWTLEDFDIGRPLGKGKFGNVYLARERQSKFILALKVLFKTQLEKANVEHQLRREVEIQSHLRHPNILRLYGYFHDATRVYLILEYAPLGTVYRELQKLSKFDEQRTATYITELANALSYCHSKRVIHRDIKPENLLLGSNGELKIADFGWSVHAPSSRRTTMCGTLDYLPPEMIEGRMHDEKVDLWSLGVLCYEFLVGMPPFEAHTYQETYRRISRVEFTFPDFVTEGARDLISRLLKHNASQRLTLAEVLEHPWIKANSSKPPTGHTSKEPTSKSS

The first assay concerns the target T1, recombinant murine Aurora A enzyme (Mus musculus, UniProt P97477).
T1 construct: hexahistidine (His6) (N); made in house; host or cells: insect cells, baculovirus (Bac-to-Bac, Invitrogen)
As to the kind of experiment: Aurora A DELFIA Kinase Assay. Format: biochemical.
Conditions: not given
`CC1N=C(c2c(F)cccc2F)c2cc(Cl)ccc2-c2nc(Nc3ccc(C(=O)O)cc3)ncc21` (stereo not drawn) [Compound I-371, 4-{[9-chloro-7-(2,6-difluorophenyl)-5-methyl-5H-pyrimido[5,4-d][2]benzazepin-2-yl]amino}benzoic acid]: the IC50 is no more than 100 nM.

Staying with this assay, now noted: mouse Aurora A, 250 μM ATP; threshold less than or equal to 100 nM; read-out: IC50.
For `COc1cccc(Nc2ncc3c(n2)-c2ccc(C(=O)O)cc2C(c2c(F)cccc2F)=NC3)c1` [Compound I-353, 7-(2,6-difluorophenyl)-2-[(3-methoxyphenyl)amino]-5H-pyrimido[5,4-d][2]benzazepine-9-carboxylic acid], the 50% inhibitory concentration (IC50) was no more than 100 nM.
On the same count and under the same terms, the figure for `CNC(=O)c1csc(Nc2ncc3c(n2)-c2ccc(Cl)cc2C(c2c(F)cccc2F)=NC3)n1` [Compound I-355, 2-{[9-chloro-7-(2,6-difluorophenyl)-5H-pyrimido[5,4-d][2]benzazepin-2-yl]amino}-N-methyl-1,3-thiazole-4-carboxamide] is no more than 100 nM; for `Cc1csc(Nc2ncc3c(n2)-c2ccc(C(=O)O)cc2C(c2c(F)cccc2F)=NC3)n1` [Compound I-357, 7-(2,6-difluorophenyl)-2-[(4-methyl-1,3-thiazol-2-yl)amino]-5H-pyrimido[5,4-d][2]benzazepine-9-carboxylic acid] it is no more than 100 nM.
Still for that read-out and setting: as for `CN(C)CCC(=O)c1cccc(Nc2ncc3c(n2)-c2ccc(Cl)cc2C(c2c(F)cccc2F)=NC3)c1` [Compound I-359, 1-(3-{[9-chloro-7-(2,6-difluorophenyl)-5H-pyrimido[5,4-d][2]benzazepin-2-yl]amino}phenyl)-3-(dimethylamino)propan-1-one], the figure is no more than 100 nM.
As for `CC1CN(C(=O)c2csc(Nc3ncc4c(n3)-c3ccc(Cl)cc3C(c3c(F)cccc3F)=NC4)n2)CC(C)N1` (stereo not drawn) [Compound I-362, 9-chloro-7-(2,6-difluorophenyl)-N-{4-[(3,5-dimethylpiperazin-1-yl)carbonyl]-1,3-thiazol-2-yl}-5H-pyrimido[5,4-d][2]benzazepin-2-amine], the IC50 is no more than 100 nM.
Take `C[C@@H]1CN(C(=O)c2csc(Nc3ncc4c(n3)-c3ccc(Cl)cc3C(c3c(F)cccc3F)=NC4)n2)CCN1` [Compound I-365, 9-chloro-7-(2,6-difluorophenyl)-N-(4-{[(3R)-3-methylpiperazin-1-yl]carbony}-1,3-thiazol-2-yl)-5H-pyrimido[5,4-d][2]benzazepin-2-amine]: the IC50 is no more than 100 nM.
The same measure, in the same setting: the figure for `C[C@@H]1CNCCN1C(=O)c1ccc(Nc2ncc3c(n2)-c2ccc(Cl)cc2C(c2c(F)cccc2F)=NC3)cc1` [Compound I-366, 9-chloro-7-(2,6-difluorophenyl)-N-(4-{[(2R)-2-methylpiperazin-1-yl]carbonyl}phenyl)-5H-pyrimido[5,4-d][2]benzazepin-2-amine] is no more than 100 nM; for `CNC1CCN(C(=O)c2csc(Nc3ncc4c(n3)-c3ccc(Cl)cc3C(c3c(F)cccc3F)=NC4)n2)C1` (stereo not drawn) [Compound I-367, 9-chloro-7-(2,6-difluorophenyl)-N-(4-{[3-(methylamino)pyrrolidin-1-yl]carbonyl}-1,3-thiazol-2-yl)-5H-pyrimido[5,4-d][2]benzazepin-2-amine] it is no more than 100 nM.
Still for that read-out and setting: the figure for `O=C(O)c1coc(Nc2ncc3c(n2)-c2ccc(Cl)cc2C(c2c(F)cccc2F)=NC3)n1` [Compound I-368, 2-{[9-chloro-7-(2,6-difluorophenyl)-5H-pyrimido[5,4-d][2]benzazepin-2-yl]amino}-1,3-oxazole-4-carboxylic acid] is no more than 100 nM; for `CN(C)CCCc1cccc(Nc2ncc3c(n2)-c2ccc(Cl)cc2C(c2c(F)cccc2F)=NC3)c1` [Compound I-372, 9-chloro-7-(2,6-difluorophenyl)-N-{3-[3-(dimethylamino)propyl]phenyl}-5H-pyrimido[5,4-d][2]benzazepin-2-amine] it is no more than 100 nM; for `NCCCc1cccc(Nc2ncc3c(n2)-c2ccc(Cl)cc2C(c2c(F)cccc2F)=NC3)c1` [Compound I-373, N-[3-(3-aminopropyl)phenyl]-9-chloro-7-(2,6-difluorophenyl)-5H-pyrimido[5,4-d][2]benzazepin-2-amine] it is no more than 100 nM.
On the same count and under the same terms, as for `CC1CN(C(=O)c2coc(Nc3ncc4c(n3)-c3ccc(Cl)cc3C(c3c(F)cccc3F)=NC4)n2)CC(C)N1` (stereo not drawn) [Compound I-374, 9-chloro-7-(2,6-difluorophenyl)-N-[4-[(3,5-dimethylpiperazin-1-yl)carbonyl]-1,3-oxazol-2-yl]-5H-pyrimido[5,4-d][2]benzazepin-2-amine], the figure is no more than 100 nM; as for `CNC1CCN(C(=O)c2coc(Nc3ncc4c(n3)-c3ccc(Cl)cc3C(c3c(F)cccc3F)=NC4)n2)C1` (stereo not drawn) [Compound I-375, 9-chloro-7-(2,6-difluorophenyl)-N-(4-{[3-(methylamino)pyrrolidin-1-yl]carbonyl}-1,3-oxazol-2-yl)-5H-pyrimido[5,4-d][2]benzazepin-2-amine], no more than 100 nM; as for `CNC(=O)c1ccc2c(c1)C(c1c(F)cccc1F)=NCc1cnc(Nc3ccc(C(=O)N4CC(C)NC(C)C4)cc3)nc1-2` (stereo not drawn) [Compound I-376, 7-(2,6-difluorophenyl)-2-({4-[(3,5-dimethylpiperazin-1-yl)carbonyl]phenyl}amino)-N-methyl-5H-pyrimido[5,4-d][2]benzazepine-9-carboxamide], no more than 100 nM.

(Values after patent publication US9102678B2, “Compounds and methods for inhibiting mitotic progression” (Millennium Pharmaceuticals, Inc., priority 2004, dated 2015).)
